Laboratory results published in patent US10512651B2, “Inhibition of MK2 in the treatment of cancer” (STC.UNM, priority 2014, dated 2019).

Key:
[1] = tested on: Caco-2 colon cancer cells; experiment: Caco-2 scratch wound assay (proliferation and migration); type: cell-based; conditions: Caco-2 cells incubated with inhibitor, FIG. 9
Experimental: FIG. 9 is a graph showing that MK2 inhibition decreases colon cancer carcinoma cell proliferation. Incubating Caco-2 colon cancer cells with the MK2 inhibitor (MK2a) decreased proliferation and migration in a scratch wound assay.

[2] = tested on: neoplasms in AOM/DSS exposed mice; experiment: AOM/DSS mouse model of colon cancer, neoplasm number after MK2 inhibitor treatment; type: in vivo; conditions: treated three times a week for three weeks; FIG. 10
Experimental: FIG. 10 is a graph showing that AOM/DSS exposed mice treated with MK2 inhibitors regresses neoplasms.
Mice: C57Bl/6 mice from Harlan Laboratories and the MK2^−/−tm1Mgl (8) mouse strain were bred under pathogen free conditions. Animal procedures were approved by the UNM IACUC. Azoxymethane (AOM), (Sigma Aldrich, St. Louis, Mo.) was injected […] into 6-8 week old female mice at 12.5 mg/kg. Dextran Sodium Sulfate (DSS), (MP Biomedicals, MW 36,000-50,000) was added to drinking water at 2.5% at days 5 and 26 and at 2.0% at day 47, 2.0% for 5 days sacrificed at day 80. Control mice received PBS IP and no DSS in water. Mouse Colon Supernatants: 8 mg (±0.5 mg) of cleaned colon tissues were incubated in complete RPMI with antibiotics for 12 hours. Supernatants were analyzed for cytokines by Luminex bead array (Millipore, Billerica, Mass.) according to manufacturer's instructions.

O=C(CCCc1ccc(-c2ccccc2F)cc1)Nc1ccc(O)cc1 [MK2a inhibitor]
migration in a scratch wound assay [1]: decreased | colon cancer carcinoma cell proliferation ([1]; scratch wound assay): decreased | neoplasms (number) in AOM/DSS exposed mice [2]: significantly less neoplasms
